ChEMBL document CHEMBL1201862, “PubChem BioAssay data set” (2004)
Blank lines part the entries; values can stand above or below the compound they belong to. The source made the active and inactive calls.

Tests used:
[1] = molecular target: Glucose-6-phosphate 1-dehydrogenase (Homo sapiens, UniProt P11413); assay: human G6PD enzyme inhibitors, dose response, selectivity assay for P. falciparum G6PD inhibitor project, biochemical, fluorescence (AID 504792); format: functional
[2] = molecular target: Keap1/Nrf2 (Homo sapiens, UniProt Q14145); assay: Keap1-Nrf2 protein-protein interaction inhibitors, dose response, biochemical, fluorescence polarization, cherry-picked samples (AID 588683)
Chain of Keap1/Nrf2 (Q16236 whole entry): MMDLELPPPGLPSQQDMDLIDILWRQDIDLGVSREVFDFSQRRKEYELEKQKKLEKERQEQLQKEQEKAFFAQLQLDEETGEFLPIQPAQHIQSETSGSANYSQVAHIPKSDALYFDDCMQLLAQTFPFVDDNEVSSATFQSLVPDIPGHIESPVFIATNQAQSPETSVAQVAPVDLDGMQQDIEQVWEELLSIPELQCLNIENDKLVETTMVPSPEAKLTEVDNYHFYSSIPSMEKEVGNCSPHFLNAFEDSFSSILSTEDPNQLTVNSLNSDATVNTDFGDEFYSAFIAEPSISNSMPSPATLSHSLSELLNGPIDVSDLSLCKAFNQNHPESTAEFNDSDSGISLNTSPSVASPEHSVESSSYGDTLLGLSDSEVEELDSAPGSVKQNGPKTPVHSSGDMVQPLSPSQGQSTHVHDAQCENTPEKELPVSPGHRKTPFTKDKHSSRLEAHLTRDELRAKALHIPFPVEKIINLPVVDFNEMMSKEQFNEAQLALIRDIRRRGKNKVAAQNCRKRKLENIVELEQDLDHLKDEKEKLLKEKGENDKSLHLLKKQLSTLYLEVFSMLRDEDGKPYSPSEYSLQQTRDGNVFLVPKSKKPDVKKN
Chain of Keap1/Nrf2 (Q14145 whole entry): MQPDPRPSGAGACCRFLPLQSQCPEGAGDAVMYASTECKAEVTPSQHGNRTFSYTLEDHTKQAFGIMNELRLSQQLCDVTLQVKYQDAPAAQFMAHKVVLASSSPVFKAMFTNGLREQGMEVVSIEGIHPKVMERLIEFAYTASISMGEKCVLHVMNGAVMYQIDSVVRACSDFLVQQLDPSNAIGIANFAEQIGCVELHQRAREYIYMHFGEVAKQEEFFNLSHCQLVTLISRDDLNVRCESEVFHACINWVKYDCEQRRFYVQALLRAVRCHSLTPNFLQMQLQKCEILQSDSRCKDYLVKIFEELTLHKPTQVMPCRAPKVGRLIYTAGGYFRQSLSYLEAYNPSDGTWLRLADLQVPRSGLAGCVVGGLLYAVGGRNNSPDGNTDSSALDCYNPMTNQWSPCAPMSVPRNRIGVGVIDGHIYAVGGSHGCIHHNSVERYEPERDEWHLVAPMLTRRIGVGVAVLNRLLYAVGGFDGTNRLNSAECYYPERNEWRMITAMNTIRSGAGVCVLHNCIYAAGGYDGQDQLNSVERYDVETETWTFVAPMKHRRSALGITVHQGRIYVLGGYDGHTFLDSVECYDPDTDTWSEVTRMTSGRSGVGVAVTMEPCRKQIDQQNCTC

[3] = molecular target: T1, Corticotropin-releasing factor receptor 2/Corticotropin-releasing factor-binding protein (Homo sapiens, UniProt P24387+Q13324); assay: activators of CRF receptor 2 with binding protein – uHTS hits, confirmation (AID 602473); format: functional; settings: read-out: EC50_Mean
T1 sequence (Q13324 whole entry): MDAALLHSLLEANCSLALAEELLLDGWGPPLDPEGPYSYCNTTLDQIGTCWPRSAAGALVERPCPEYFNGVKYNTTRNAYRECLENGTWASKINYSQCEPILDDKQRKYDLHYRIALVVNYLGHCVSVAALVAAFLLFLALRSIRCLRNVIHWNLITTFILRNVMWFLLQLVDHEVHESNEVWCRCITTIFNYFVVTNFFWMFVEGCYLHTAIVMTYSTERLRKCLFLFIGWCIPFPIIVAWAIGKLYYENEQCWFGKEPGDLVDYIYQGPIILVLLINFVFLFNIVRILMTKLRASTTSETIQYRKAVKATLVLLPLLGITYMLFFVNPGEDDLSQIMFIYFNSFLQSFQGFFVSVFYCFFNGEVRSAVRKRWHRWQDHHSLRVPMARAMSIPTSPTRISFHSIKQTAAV
T1 sequence (P24387 whole entry): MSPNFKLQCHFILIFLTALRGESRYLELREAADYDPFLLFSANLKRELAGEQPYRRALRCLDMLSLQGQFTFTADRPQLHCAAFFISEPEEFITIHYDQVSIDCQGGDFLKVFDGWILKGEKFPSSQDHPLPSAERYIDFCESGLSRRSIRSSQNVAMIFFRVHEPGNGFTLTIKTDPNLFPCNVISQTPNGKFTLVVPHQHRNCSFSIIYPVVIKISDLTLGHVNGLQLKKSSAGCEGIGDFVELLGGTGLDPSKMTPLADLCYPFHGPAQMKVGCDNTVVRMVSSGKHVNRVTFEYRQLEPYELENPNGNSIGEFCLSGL

[4] = molecular target: T2, Rac GTPase-activating protein 1 (Homo sapiens, UniProt Q9H0H5); assay: MgcRacGAP GTPase-activating activity inhibitors, confirmation, biochemical, ADP Hunter fluorescence, primary and confirmatory (AID 624330); format: functional
T2 sequence (Q9H0H5 whole entry): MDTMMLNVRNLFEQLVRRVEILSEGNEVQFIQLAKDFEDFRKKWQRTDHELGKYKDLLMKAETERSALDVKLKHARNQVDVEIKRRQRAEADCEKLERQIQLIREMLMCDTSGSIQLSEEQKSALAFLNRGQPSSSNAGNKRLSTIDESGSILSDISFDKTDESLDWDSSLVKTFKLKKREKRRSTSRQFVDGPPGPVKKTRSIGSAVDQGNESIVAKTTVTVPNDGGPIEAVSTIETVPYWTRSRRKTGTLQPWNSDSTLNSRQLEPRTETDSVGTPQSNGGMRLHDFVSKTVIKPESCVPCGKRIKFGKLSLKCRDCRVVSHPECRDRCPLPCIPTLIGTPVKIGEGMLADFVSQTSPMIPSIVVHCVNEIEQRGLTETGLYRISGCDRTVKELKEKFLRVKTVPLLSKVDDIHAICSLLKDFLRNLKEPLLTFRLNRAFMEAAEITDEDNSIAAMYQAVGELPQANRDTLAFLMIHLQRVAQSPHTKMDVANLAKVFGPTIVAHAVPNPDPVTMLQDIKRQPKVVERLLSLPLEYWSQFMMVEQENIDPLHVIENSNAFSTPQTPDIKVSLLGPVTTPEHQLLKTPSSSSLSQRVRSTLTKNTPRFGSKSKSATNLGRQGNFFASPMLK

[5] = test system: Escherichia coli; assay: microbe, parasite or virus in culture
[6] = test system: HeLa; assay: HeLa cell cytotoxicity, dose response, cytotoxicity control for MITF activator project, CellTiter-Glo luminescence, cherry-pick samples (AID 540259); format: functional, cell-based; settings: Homo sapiens
[7] = test system: Escherichia coli; assay: microbe, parasite or virus in culture; remark: listed apart in the source
[8] = NIH-3T3 fibroblast cytotoxicity, dose response, cytotoxicity control, cell-based, fluorescence, Alamar Blue, secondary assay (AID 2327); format: functional;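 further: NIH-3T3 mouse fibroblasts cultured with fluconazole at 8 µg/mL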
[9] = test system: HEK293; assay: cells; format: functional, cell-based; settings: Homo sapiens
[10] = molecular target: T3, Nuclear receptor subfamily 0 group B member 1 (Homo sapiens, UniProt P51843); assay: Luminescence-based cell-based high throughput dose response assay for inhibitors of the orphan nuclear receptor subfamily 0, group B, member 1 (DAX1; NR0B1). [Related pubchem assays (depositor defined):AID504766, AID504790]; format: functional
T3 sequence (P51843 whole entry): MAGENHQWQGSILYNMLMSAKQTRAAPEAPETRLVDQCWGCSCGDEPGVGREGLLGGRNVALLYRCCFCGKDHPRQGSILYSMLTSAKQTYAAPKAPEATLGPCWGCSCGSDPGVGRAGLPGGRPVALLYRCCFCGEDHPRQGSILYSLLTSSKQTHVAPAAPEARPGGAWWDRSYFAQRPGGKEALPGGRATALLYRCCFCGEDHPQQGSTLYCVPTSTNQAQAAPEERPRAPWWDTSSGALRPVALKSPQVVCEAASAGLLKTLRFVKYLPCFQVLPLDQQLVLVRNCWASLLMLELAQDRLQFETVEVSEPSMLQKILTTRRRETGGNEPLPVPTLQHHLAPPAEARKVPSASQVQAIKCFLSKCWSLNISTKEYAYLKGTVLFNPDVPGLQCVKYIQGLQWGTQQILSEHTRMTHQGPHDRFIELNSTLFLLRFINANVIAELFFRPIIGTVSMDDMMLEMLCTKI

[11] = test system: CHO; assay: cytotoxicity in TLR9-MyD88 CHO cells, dose response, cytotoxicity control for TLR9-MyD88 binding inhibitor project, cell-based, luminescence (AID 588339); format: functional, hamster; settings: Cricetulus griseus;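 further: CHO cells stably coexpressing TLR9 and MyD88 fusions from primary screen; compound exposure lasted 48 hours before viability readout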
[12] = molecular target: Beta Lactamase (Pseudomonas aeruginosa, UniProt Q932Y6); assay: beta-lactamase reporter inhibitor potency, dose response, artefact control for TLR9-MyD88 binding inhibitor project, BLA reporter cells, FRET fluorescence (AID 588341); format: cell-based;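 further: cell based assay in CHO-K1 cells stably expressing beta-lactamase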
Chain of Beta Lactamase (Q932Y6 whole entry): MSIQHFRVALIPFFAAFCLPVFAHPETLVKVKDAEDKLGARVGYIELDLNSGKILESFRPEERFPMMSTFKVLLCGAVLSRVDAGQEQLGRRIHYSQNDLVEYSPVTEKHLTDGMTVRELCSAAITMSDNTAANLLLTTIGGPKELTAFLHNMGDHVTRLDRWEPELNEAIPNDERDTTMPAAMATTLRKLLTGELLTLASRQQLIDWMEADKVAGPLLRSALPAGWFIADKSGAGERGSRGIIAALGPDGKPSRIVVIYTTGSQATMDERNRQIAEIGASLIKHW

[13] = molecular target: Dual specificity tyrosine-phosphorylation-regulated kinase 1A (Rattus norvegicus, UniProt Q63470); format: biochemical, Homo sapiens
[14] = molecular target: Beta-2 adrenergic receptor (Homo sapiens, UniProt P07550); assay: beta2AR agonists driving receptor internalization, dose response, cell-based, FAP fluorogen, flow cytometry, cherry pick 1 (AID 588763); format: functional
Chain of Beta-2 adrenergic receptor (P07550 whole entry): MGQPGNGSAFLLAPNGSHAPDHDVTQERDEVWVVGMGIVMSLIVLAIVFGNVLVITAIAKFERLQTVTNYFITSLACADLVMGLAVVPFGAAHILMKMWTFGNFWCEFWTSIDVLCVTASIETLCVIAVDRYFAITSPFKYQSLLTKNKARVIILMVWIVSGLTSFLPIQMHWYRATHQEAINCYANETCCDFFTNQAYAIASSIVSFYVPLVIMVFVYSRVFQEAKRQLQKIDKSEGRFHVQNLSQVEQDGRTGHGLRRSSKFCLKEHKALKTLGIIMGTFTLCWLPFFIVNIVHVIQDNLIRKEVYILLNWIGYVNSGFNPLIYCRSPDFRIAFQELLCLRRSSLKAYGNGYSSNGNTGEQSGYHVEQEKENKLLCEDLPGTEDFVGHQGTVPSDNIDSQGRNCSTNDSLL

[15] = molecular target: T4, Polyadenylate-binding protein 1 (Homo sapiens, UniProt P11940); assay: PABP1 MLLE–PAM2 interaction inhibitors, dose response, miRNA deadenylation inhibitor project, biochemical, fluorescence polarization, Cy5-PAM2 peptide, secondary (AID 602260); format: functional; settings: read-out: IC50_Mean
T4 sequence (P11940 whole entry): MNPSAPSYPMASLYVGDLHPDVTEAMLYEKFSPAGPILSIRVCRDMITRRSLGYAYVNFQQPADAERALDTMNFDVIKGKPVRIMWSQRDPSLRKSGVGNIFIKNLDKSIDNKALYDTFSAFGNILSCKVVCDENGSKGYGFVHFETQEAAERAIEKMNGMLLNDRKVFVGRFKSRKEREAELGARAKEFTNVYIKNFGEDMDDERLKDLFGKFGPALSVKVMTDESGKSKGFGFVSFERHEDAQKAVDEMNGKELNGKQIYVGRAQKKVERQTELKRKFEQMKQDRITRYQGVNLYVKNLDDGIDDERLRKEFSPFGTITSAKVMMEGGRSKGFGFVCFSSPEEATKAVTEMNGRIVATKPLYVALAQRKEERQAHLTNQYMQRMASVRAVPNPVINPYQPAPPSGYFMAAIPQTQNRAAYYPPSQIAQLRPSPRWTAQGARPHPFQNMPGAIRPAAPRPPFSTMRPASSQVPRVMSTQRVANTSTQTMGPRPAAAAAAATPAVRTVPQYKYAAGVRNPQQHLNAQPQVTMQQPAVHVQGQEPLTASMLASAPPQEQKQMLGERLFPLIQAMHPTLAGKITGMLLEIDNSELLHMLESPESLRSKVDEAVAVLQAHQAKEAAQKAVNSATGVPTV

[16] = molecular target: T4, Polyadenylate-binding protein 1; assay: PABP1 MLLE–PAM2 binding inhibitor potency, dose response, biochemical, fluorescence polarization, FITC-PAM2 peptide (AID 602259); format: functional; settings: read-out: IC50_Mean
[17] = molecular target: Large T antigen (Simian virus 40, UniProt P03070); format: functional, Betapolyomavirus macacae;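 further: Confirmatory-stage PubChem screen for compounds that inhibit SV40 T antigen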
Chain of Large T antigen (P03070 whole entry): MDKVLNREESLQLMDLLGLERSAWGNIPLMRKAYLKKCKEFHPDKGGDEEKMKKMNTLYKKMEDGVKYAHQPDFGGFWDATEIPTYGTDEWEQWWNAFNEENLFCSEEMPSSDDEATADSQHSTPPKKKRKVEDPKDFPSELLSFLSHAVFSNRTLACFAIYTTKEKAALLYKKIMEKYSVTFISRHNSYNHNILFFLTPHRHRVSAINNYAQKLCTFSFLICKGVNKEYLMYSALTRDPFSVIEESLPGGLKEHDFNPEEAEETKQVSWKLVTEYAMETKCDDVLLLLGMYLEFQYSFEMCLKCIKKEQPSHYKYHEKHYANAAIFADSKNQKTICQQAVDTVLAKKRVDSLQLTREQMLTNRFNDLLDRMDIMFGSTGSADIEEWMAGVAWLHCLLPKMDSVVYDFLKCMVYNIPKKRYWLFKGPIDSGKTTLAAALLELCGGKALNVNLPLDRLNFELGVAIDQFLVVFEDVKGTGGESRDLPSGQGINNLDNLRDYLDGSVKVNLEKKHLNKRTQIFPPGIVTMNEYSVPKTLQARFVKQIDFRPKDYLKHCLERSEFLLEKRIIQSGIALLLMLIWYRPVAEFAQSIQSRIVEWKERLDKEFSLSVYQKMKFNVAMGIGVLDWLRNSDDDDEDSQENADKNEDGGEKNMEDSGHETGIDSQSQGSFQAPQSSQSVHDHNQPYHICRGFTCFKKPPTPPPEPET

Chain of Glucose-6-phosphate 1-dehydrogenase (P11413 whole entry): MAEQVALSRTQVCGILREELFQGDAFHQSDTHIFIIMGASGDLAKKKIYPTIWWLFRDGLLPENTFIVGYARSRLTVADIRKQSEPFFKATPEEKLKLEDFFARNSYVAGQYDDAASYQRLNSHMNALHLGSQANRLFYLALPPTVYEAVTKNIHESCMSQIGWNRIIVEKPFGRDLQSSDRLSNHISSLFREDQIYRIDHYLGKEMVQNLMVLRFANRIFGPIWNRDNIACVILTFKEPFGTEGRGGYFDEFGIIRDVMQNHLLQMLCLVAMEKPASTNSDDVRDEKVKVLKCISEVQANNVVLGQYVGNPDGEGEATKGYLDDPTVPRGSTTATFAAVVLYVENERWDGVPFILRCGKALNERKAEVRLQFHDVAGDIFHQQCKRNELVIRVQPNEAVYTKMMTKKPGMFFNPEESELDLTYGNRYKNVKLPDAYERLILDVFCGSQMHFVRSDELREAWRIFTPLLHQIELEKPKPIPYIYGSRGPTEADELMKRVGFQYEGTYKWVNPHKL

Compound: Nc1ccc2c3c(cccc13)-c1ccccc1-2
IC50 [1]: > 80 µM (inactive)
AC50 [2]: 2.01 µM (active)
EC50 [3]: 4.79 µM (active)
IC50 [4]: 39.2 µM (active)

Compound: CCCCCN(C(=O)CCC(=O)OCC(=O)N(C)Cc1ccc(C)cc1)c1c(N)n(CCCC)c(=O)[nH]c1=O
AC50 [5]: > 380 µM (inactive)

Compound: C/C(Cl)=C/CSc1nn2c(=O)c3ccccc3nc2s1
AC50 [6]: 36.3 µM (active)

Compound: COc1ccccc1Nc1nc(C)cs1
AC50 [7]: 26.8 µM (active)
AC50 [5]: 60.7 µM (active)

Compound: CCc1nc(NC(C)(C)C)c2cnn(-c3ccccc3)c2n1
AC50 [6]: 134 µM (active)

Compound: c1cnc(SCCOc2ccc3c(c2)CCC3)nc1
EC50 [8]: > 160 µM (inactive)
IC50 [9]: > 67.6 µM (inactive)
IC50 [10]: > 67.6 µM (inactive)

Compound: Brc1cc(Br)c2nc(-c3ccc(N4CCOCC4)cc3)ccc2c1
IC50 [11]: > 49.8 µM (inactive)
IC50 [12]: 2.37 µM (active)

Compound: N#C/C(=C\c1cn[nH]c1-c1ccc(Cl)cc1)C(=O)NCc1ccccc1
AC50 [7]: 12.4 µM (active)
AC50 [5]: 300 µM (active)

AC50 [13]: 0.461 µM (active)
Compound: Oc1ccc(Nc2nc(-c3ccccc3)nc3ccccc23)cc1

AC50 [13]: 66.8 µM (active)
EC50 [14]: 0.225 µM (active)
Compound: NC(=O)CC(NC(=O)c1cccc(Br)c1)c1ccc(N2CCN(c3ccccn3)CC2)c([N+](=O)[O-])c1 (stereo unspecified)

AC50 [13]: 12.4 µM (active)
IC50 [15]: > 66 µM (inactive)
IC50 [16]: > 66 µM (inactive)
Compound: Oc1cccc(NC(=S)N=Nc2c(O)[nH]c3ccccc23)c1

Compound: CN(C(=O)c1cc2sccc2n1C)C1CCCCC1
AC50 [6]: 218 µM (active)

Compound: CCN(CC)c1ccc(-c2nc3cnccn3c2NC2CCCC2)cc1
IC50 [17]: 21.9 µM (active)
IC50 [11]: > 16.6 µM (inactive)
IC50 [12]: 5.29 µM (active)
